{
  "source": "patent US20130109714A1",
  "about": "“NEURODEGENERATIVE DISEASE THERAPEUTIC AGENT” (National University Corporation Hokkaido University, priority 2010, published 2013)",
  "key": {"[1]": {"test_system": "mouse injected with 6-OHDA to the unilateral (left) midbrain", "experiment": "6-OHDA Parkinson's disease model, methamphetamine-induced rotational behavior", "format": "in vivo", "details": "administered together with methamphetamine, up to 7 days after administration", "protocol": "To evaluate effects of a DJ-1 bound compound on Parkinson's disease in vivo, 6-OHDA was stereotactically injected to the unilateral (left) midbrain of a mouse. Then, the DJ-1 bound compound (No. 23) was administered together with methamphetamine. Here, administration of methamphetamine to an animal induces ipsilateral movement relative to the injection site. Accordingly, by the administration of methamphetamine to a mouse, a rotational behavior is observed."}, "[2]": {"test_system": "primary nerve cells of the rat ventral midbrain", "experiment": "H2O2-induced cell death in primary nerve cells, MTT assay", "format": "cell-based", "details": "1 μM compound for 20 h, then 200 μM H2O2 for 3 h", "protocol": "From germinal cells of a rat at 17-19 days pregnant, primary nerve cells of the rat ventral midbrain were prepared. To evaluate presence of dopamine-producing neurons in a cell culture, the cell culture was immunostained with anti-NeuN antibody and anti-TH antibody to identify each of whole neurons and dopamine-producing neurons, and cell nuclei were stained with DAPI.\nTherefore, it was clarified that No. 23 provides a resistance against nerve cell death induced by oxidative stress."}, "[3]": {"test_system": "cerebral stroke model rat", "details": "in vivo"}},
  "data": [
    {"smiles": "COc1cc(C(=O)Nc2ccc(-c3cn4cccc(C)c4n3)cc2)cc(OC)c1OC", "note": "[No. 23]", "values": [
      {"measurement": "rotational behavior, number of rotations (FIGS. 15 and 16)", "setting": "[1]", "value": "significantly suppressed"},
      {"measurement": "cell death caused by hydrogen peroxide in primary nerve cells (FIG. 12)", "setting": "[2]", "value": "no cell death was observed"},
      {"measurement": "cell death in brain, TTC staining, infarct area and volume (FIGS. 4-7)", "setting": "[3]", "value": "significantly suppresses cell death"}
    ]}
  ]
}
